Measurements: US7659404B2, “Broad spectrum 2-(substituted-amino)-benzothiazole sulfonamide HIV protease inhibitors” (Tibotec Pharmaceuticals Ltd., priority 2001, dated 2010)

What was measured:
[1] = tested on: virus strain F (R13025); assay: microbe, parasite or virus in culture; assay type: cell-based, HIV; details: FR=EC50(mutant strain)/EC50(HIV-1 strain LAI); strain F
Method in brief: (§1)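 First, MT4 cells were infected with HIV (or mock-infected) and incubated five days with varying inhibitor concentrations. Next, living cells were quantified via MTT reduction, measuring absorbance at 540 nm. Finally, EC50 was derived and fold resistance calculated relative to HIV-1 strain LAI.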

[2] = tested on: virus strain S (R13080); assay: microbe, parasite or virus in culture; assay type: cell-based, HIV; details: FR=EC50(mutant strain)/EC50(HIV-1 strain LAI); strain S
Method in brief: as §1

[3] = tested on: clinically isolated HIV strain I; assay type: cell-based; details: FR=EC50(mutant strain)/EC50(HIV-1 strain LAI)
Description: (§2) HIV- or mock-infected MT4 cells were incubated for five days in the presence of various concentrations of the inhibitor. […] Cell viability is measured by measuring the concentration of MTT, a yellow, water soluble tetrazolium dye that is converted to a purple, water insoluble formazan in the mitochondria of living cells only. Upon solubilization of the resulting formazan crystals with isopropanol, the absorbance of the solution is monitored at 540 nm. The values correlate directly to the number of living cells remaining in the culture at the completion of the five day incubation. The inhibitory activity of the compound was monitored on the virus-infected cells and was expressed as EC50 and EC90. These values represent the amount of the compound required to protect 50% and 90%, respectively, of the cells from the cytopathogenic effect of the virus. The toxicity of the compound was measured on the mock-infected cells and was expressed as CC50, which represents the concentration of compound required to inhibit the growth of the cells by 50%. The selectivity index (SI) (ratio CC50/EC50) is an indication of the selectivity of the anti-HIV activity of the inhibitor.
(§3) Because of the increasing emergence of drug resistant HIV strains, the present compounds were tested for their potency against clinically isolated HIV strains harboring several mutations.
(§4) As a measure of the broad spectrum activity of the present compounds, the fold resistance (FR) defined as FR=EC50(mutant strain)/EC50(HIV-1 strain LAI).

[4] = tested on: clinically isolated HIV strain T; assay type: cell-based; details: FR=EC50(mutant strain)/EC50(HIV-1 strain LAI)
Description: as §2, §3, §4

[5] = tested on: clinically isolated HIV strain O; assay type: cell-based; details: FR=EC50(mutant strain)/EC50(HIV-1 strain LAI)
Description: as §2, §3, §4

[6] = tested on: clinically isolated HIV strain H; assay type: cell-based; details: FR=EC50(mutant strain)/EC50(HIV-1 strain LAI)
Description: as §2, §3, §4

[7] = tested on: clinically isolated HIV strain J; assay type: cell-based; details: FR=EC50(mutant strain)/EC50(HIV-1 strain LAI)
Description: as §2, §3, §4

SMILES | fold resistance (FR), strain F [1] | fold resistance (FR), strain S [2] | fold resistance (FR), strain I [3] | fold resistance (FR), strain T [4] | fold resistance (FR), strain O [5] | fold resistance (FR), strain H [6] | fold resistance (FR), strain J [7]
CC(C)CN(C[C@@H](O)[C@H](Cc1ccccc1)NC(=O)O[C@H]1CO[C@H]2OCC[C@H]21)S(=O)(=O)c1ccc2nc(NCCN(C)C(=O)OC(C)(C)C)sc2c1 [Compound 21] | 16.6 | 38.6 | 3.7 | 380.0 | 3.4 | 4.8 | 3.3
Cc1c(N)cccc1C(=O)N[C@@H](Cc1ccccc1)[C@H](O)CN(CC(C)C)S(=O)(=O)c1ccc2nc(NCCN3CCNCC3)sc2c1 [Compound 60] | 1.2 | 1.4 | 1.3 | 4.1 | 1.1 | 1.3 | 0.6
CC(C)CN(C[C@@H](O)[C@H](Cc1ccccc1)NC(=O)O[C@H]1CO[C@H]2OCC[C@H]21)S(=O)(=O)c1ccc2nc(NCCCN(C)C)sc2c1 [Compound 22] | 0.3 | 1.4 | 0.6 | 6.0 | 0.4 | 0.4 | 0.4
CC(C)CN(C[C@@H](O)[C@H](Cc1ccccc1)NC(=O)OCc1cccnc1)S(=O)(=O)c1ccc2nc(NCCN(C)C)sc2c1 [Compound 38] | 12.4 | 11.9 | 1.1 | 230.4 | 1.2 | 2.0 | 3.9
CC(C)CN(C[C@@H](O)[C@H](Cc1ccccc1)NC(=O)OCc1cccnc1)S(=O)(=O)c1ccc2nc(NCCN3CCNCC3)sc2c1 [Compound 58] | 2.1 | 4.4 | 0.7 | 27.0 | 1.7 | 1.6 | 2.0
CC(C)CN(CC(O)C(Cc1ccccc1)NC(=O)OC1COC2OCCC12)S(=O)(=O)c1ccc2nc(NC(=O)CN3CCNCC3)sc2c1 (mixture of isomers) [Compound 5] | 0.5 | 0.6 | 0.6 | 2.6 | 0.4 | 0.6 | 0.3
Cc1cccc(C)c1OCC(=O)N[C@@H](Cc1ccccc1)[C@H](O)CN(CC(C)C)S(=O)(=O)c1ccc2nc(NCCN(C)C)sc2c1 [Compound 40] | 7.2 | 12.8 | 6.4 | 87.8 | 3.2 | 2.1 | 2.7
CC(C)CN(C[C@@H](O)[C@H](Cc1ccccc1)NC(=O)OCc1cccnc1)S(=O)(=O)c1ccc2nc(NCCCN(C)C)sc2c1 [Compound 52] | 10.2 | 20.3 | 1.3 | 124.5 | 1.6 | 1.8 | 2.7
CCOC(=O)N(CCN(C)C)c1nc2ccc(S(=O)(=O)N(CC(C)C)C[C@@H](O)[C@H](Cc3ccccc3)NC(=O)O[C@H]3CO[C@H]4OCC[C@H]43)cc2s1 [Compound 28] | 2.3 | 4.4 | 1.4 | 12.7 | 0.8 | 1.8 | 0.7
CC(C)CN(C[C@@H](O)[C@H](Cc1ccccc1)NC=O)S(=O)(=O)c1ccc2nc(NC(=O)CN3CCCC3)sc2c1 [Compound 55] | 26.2 | 26.2 | 9.1 | 26.2 | 26.2 | 10.0 | 26.2
Cc1c(N)cccc1C(=O)N[C@@H](Cc1ccccc1)[C@H](O)CN(CC(C)C)S(=O)(=O)c1ccc2nc(NC(=O)CN3CCN(C)CC3)sc2c1.O=C(O)C(F)(F)F [Compound 66] | 4.0 | 5.6 | 1.0 | 87.9 | 1.0 | 0.9 | 1.2
CC(C)CN(C[C@@H](O)[C@H](Cc1ccccc1)NC(=O)O[C@H]1CO[C@H]2OCC[C@H]21)S(=O)(=O)c1ccc2nc(N3CCN(C)C(=O)C3)sc2c1 [Compound 24] | 16.6 | 24.1 | 1.1 | 174.9 | 1.6 | 4.7 | 4.5
CC(C)CN(C[C@@H](O)[C@H](Cc1ccccc1)NC(=O)OCc1cncs1)S(=O)(=O)c1ccc2nc(NCCCN(C)C)sc2c1 [Compound 51] | 2.9 | 2.1 | 2.6 | 51.8 | 0.6 | 1.8 | 0.9
CC(C)CN(C[C@@H](O)[C@H](Cc1ccccc1)NC(=O)OCc1cncs1)S(=O)(=O)c1ccc2nc(NCCN(C)C)sc2c1 [Compound 48] | 9.4 | 13.8 | 2.5 | 175.0 | 4.3 | 2.5 | 6.5
